# Data reported in patent US10154974B1, “Use of abscisic acid for the prevention and treatment of malaria” (The Regents of the University of California, priority 2015, dated 2018).
# Values joined by “and” are separate entries in the source; they are usually repeats but may differ in a detail not shown here. Equal entries are not always repeated.
# What was measured:
# [1] = test system: Anopheles stephensi; test: Mosquito lifespan with weekly ABA-supplemented bloodmeals; assay type: in vivo
# Experimental: Median survival of control and ABA-treated mosquitoes from five lifespans in which mosquitoes received a weekly control or ABA-supplemented uninfected bloodmeal. Each lifespan was conducted with 300 female mosquitoes per treatment. Data were analyzed by Wilcoxon matched-pairs signed rank test.
# FIG. 17A is a survival curve of mosquitoes provided weekly control or ABA-supplemented uninfected bloodmeals and maintained on 3% sucrose solution. FIG. 17B is a survival curve of P. falciparum-infected mosquitoes provided control or ABA-supplemented weekly bloodmeals. Infection status was determined by detection of PfCOX in individual mosquitoes by qRT-PCR. Data were analyzed by log-rank test and Gehan-Breslow-Wilcoxon test.
# [2] = test system: ILP3 and ILP4; test: Insulin-like peptide mRNA levels in mosquito midgut; assay type: in vivo, Anopheles stephensi; conditions: P. falciparum-fed mosquitoes
# Experimental: FIG. 14A-B illustrate that ABA reduces insulin-like peptide expression in the midgut. Specifically, mRNA levels are shown of ILP3 (FIG. 14A) and ILP4 (FIG. 14B) in ABA-treated, P. falciparum-fed mosquito midguts. Data are shown as fold change compared to control-treated mosquitoes. Each dot represents one replicate of 10 pooled midguts. Data were analyzed by one sample t-test. * p<0.05.
# [3] = test system: liver; test: Liver histology scoring; assay type: in vivo, mice
# Experimental: Mice were euthanized on day 7 post-infection. Blood was collected by heart puncture, spun at 8,000 rpm for 8 minutes and the plasma collected for ABA quantification. Livers and spleens were collected, retained in 10% formalin for 24 hours and then stored in 70% ethanol before sectioning and staining with hematoxylin and eosin. Liver sections were blindly scored on a scale from 0 to 3 for pigment levels, Kupffer cell density, portal tract inflammation, hemozoin deposition, extramedullary hematopoiesis, sinusoidal leukocyte density, sinusoidal adherence of leukocytes, and presence of microabscesses. Spleen sections were blindly scored on a scale from 0 to 3 for hyperplasia, extramedullary hematopoiesis, pigment, and levels of histiocytes and neutrophils. Pathology scores of control and treated mice were analyzed by unpaired t-test.
# [4] = test system: APL1; test: APL1 expression in mosquito midgut; assay type: in vivo, Anopheles stephensi; conditions: 100 nM ABA, 4 and 8 hours post-feeding
# Experimental: For mosquito immune gene expression, 20 midguts were dissected from mosquitoes in each treatment group at 1, 2, 4, 6, 8 and 24 hours post-feeding. Midguts were sonicated and stored in Trizol at −20° C. for up to a week before RNA was extracted according to manufacturer's instructions. cDNA synthesis was carried out using QantiTect Reverse Transcription Kit (Qiagen) and 200 ng of cDNA used per reaction for qRT-PCR with Sybr Green (Applied Biosystems). Fold changes in expression levels were calculated using the comparative threshold cycle method. Data were normalized to the housekeeping gene ribosomal protein S7 and to the control treatment. Primers and cycling conditions for AsNOS, defensin, LRIM, TEP1, and APL1 were as previously described (Hauck E S, et al. Microbes Infect. 2013; 15:775-87). […] Samples were analyzed in triplicate with 250 ng of cDNA per reaction to confirm uniformity of amplification. […] All expression data were analyzed by one sample t-test.
# Transcript levels of a panel of immune genes previously described to play a role in the mosquito immune response to malaria parasites were examined. […] Mosquitoes were provided with a P. falciparum-infected bloodmeal supplemented with 100 nM ABA or with an equivalent volume of diluent as control, then analyzed at 1-24 hours post feeding.
# [5] = infected mice, day 7 post-infection
compound,measurement,setting,value
"CC1=CC(=O)CC(C)(C)[C@@]1(O)/C=C/C(C)=C\C(=O)O (racemic) [ABA, (2Z,4E)-5-[(1S)-1-hydroxy-2,6,6-trimethyl-4-oxocyclohex-2-en-1-yl]-3-methylpenta-2,4-dienoic acid]",mosquito lifespan,[1]; P. falciparum-infected mosquitoes,does not alter
same,mosquito median survival,"[1]; five lifespans, weekly uninfected bloodmeal",does not alter
same,Median Survival,"[1]; mosquitoes, weekly ABA-supplemented uninfected bloodmeal, replicates 1-5",23 days and 16 days (2×) and 21 days and 18 days
same,mosquito lifespan,[1]; nutrient stress: maintained on 3% sucrose solution,does not alter
same,insulin-like peptide expression,[2],reduces
same,number of sinusoidal leukocytes in the liver,[3]; absence of infection,decreased
same,adhered leukocytes in the liver,[3]; [5],fewer
same,microabscesses in the liver,[3]; [5],fewer
same,"hemozoin deposition, pigment, portal tract inflammation, extramedullary hematopoeisis, Kupffer cell density","[3]; liver, P. yoelii-infected mice",not altered
same,APL1 expression,[4],increased
